The record followed here is patent US20240228572A1 (i2o Therapeutics, Inc., priority 2020, published 2024).

*1 amine or outer side, *2 acyl side, *3 side chain or, on linkers, in order; H or OH if unused. Where a SMILES comes first, the peptide text is derived from it. Bridges are numbered along the chain shown (N, C = ends). Side-chain parts run from the residue outwards. The star is where a group is joined. C20 diacid = O=C(O)CCCCCCCCCCCCCCCCCCC(=O)*; γGlu = O=C(O)[C@H](CCC(=O)[*:2])N[*:1]; AEEA = NCCOCCOCC(=O)O A value given as a limit tells only on which side of the number the result lay.

For test [1], the target named is T1, human GLP-1 receptor (GLP-1R) (Homo sapiens, UniProt P43220).
T1 construct: expressed in transfected cells
T1 sequence (P43220 24-463): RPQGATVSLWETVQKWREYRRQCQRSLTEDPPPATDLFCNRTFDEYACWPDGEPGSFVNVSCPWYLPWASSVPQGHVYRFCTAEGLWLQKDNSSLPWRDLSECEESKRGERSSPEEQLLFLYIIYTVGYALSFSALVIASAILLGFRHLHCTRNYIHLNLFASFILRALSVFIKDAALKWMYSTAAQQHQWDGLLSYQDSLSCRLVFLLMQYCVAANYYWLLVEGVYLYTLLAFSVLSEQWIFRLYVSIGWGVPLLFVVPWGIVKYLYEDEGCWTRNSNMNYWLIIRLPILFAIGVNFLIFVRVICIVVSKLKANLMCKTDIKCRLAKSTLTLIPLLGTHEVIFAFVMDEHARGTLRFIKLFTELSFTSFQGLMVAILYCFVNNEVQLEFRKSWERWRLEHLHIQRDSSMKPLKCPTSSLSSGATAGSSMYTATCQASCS
In words: cAMP accumulation assay, CHO-K1 cells stably expressing human GLP-1R. Particulars: cAMP accumulation, mean pEC50, Table 10. It is filed as cell-based.

Test [2] deals with T2, human Glucagon receptor (GCGR) (Homo sapiens, UniProt P47871).
T2 construct: A cDNA fragment encoding the full-length open reading frame of the human GCGR; expressed in transfected cells; host or cells: CHO-K1, pcDNA3.1+, Lipofectamine 2000
T2 sequence (P47871 26-477): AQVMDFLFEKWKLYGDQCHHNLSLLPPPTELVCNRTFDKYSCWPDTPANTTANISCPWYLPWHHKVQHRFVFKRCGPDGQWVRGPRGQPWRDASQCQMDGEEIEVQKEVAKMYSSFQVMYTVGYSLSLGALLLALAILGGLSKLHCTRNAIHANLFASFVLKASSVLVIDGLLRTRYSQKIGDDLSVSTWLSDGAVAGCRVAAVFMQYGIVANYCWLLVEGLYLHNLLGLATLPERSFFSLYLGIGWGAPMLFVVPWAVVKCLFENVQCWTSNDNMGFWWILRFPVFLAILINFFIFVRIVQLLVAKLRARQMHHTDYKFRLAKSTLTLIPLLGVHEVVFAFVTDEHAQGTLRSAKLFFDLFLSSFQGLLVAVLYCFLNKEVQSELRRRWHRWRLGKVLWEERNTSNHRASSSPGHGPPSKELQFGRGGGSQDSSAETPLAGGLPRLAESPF
In words: cAMP accumulation assay, CHO-K1 cells expressing human GCGR. Format: cell-based. Particulars: mean pEC50, Table 10. (Changes in cAMP serve as a functional read-out for many G protein-coupled receptors.)

The EC50 is the concentration needed to bring the measured effect to its halfway point. Turning to `CC(C)C[C@H](NC(=O)[C@H](Cc1ccc(O)cc1)NC(=O)[C@H](CCCCN)NC(=O)[C@H](CO)NC(=O)[C@H](Cc1ccc(O)cc1)NC(=O)[C@H](CC(=O)O)NC(=O)[C@H](CO)NC(=O)[C@@H](NC(=O)[C@H](Cc1ccccc1)NC(=O)[C@@H](NC(=O)CNC(=O)[C@H](Cc1c[nH]cn1)NC(=O)[C@H](CO)NC(=O)[C@@H](N)Cc1ccc(O)cc1)[C@@H](C)O)[C@@H](C)O)C(=O)N[C@@H](CC(=O)O)C(=O)N[C@@H](CCCCNC(=O)CC[C@H](NC(=O)CC[C@H](NC(=O)COCCOCCNC(=O)CCCCCCCCCCCCCCCCCCC(=O)O)C(=O)O)C(=O)O)C(=O)N[C@@H](CCCCN)C(=O)N[C@@H](Cc1ccc(O)cc1)C(=O)N[C@@H](C)C(=O)N[C@H]1CCC(=O)NCCCC[C@@H](C(=O)N[C@@H](Cc2c[nH]c3ccccc23)C(=O)N[C@@H](CC(C)C)C(=O)N[C@@H](CCC(=O)O)C(=O)N[C@@H](CCCCN)C(=O)N[C@@H](CCC(=O)O)C(=O)N2CCC[C@H]2C(=O)N[C@@H](CO)C(=O)N[C@@H](CO)C(=O)NCC(=O)N[C@@H](C)C(=O)N2CCC[C@H]2C(=O)N2CCC[C@H]2C(=O)N2CCC[C@H]2C(=O)N[C@@H](CO)C(=O)O)NC(=O)[C@H](C(C)C)NC(=O)[C@H](Cc2ccccc2)NC(=O)[C@H](CCCCN)NC1=O` [Compound A26] (H-YSHGTFTSDYSKYLDK([γGlu-γGlu-AEEA-C20 diacid])KYAEKFVKWLEKEPSSGAPPPS-OH; lactam 20-24; N-terminus assumed), the EC50 in test [1] is greater than 1000 pM; in test [2] it was 7.94 pM.

As to `CC(C)C[C@H](NC(=O)[C@H](Cc1ccc(O)cc1)NC(=O)[C@H](CCCCN)NC(=O)[C@H](CO)NC(=O)[C@H](Cc1ccc(O)cc1)NC(=O)[C@H](CC(=O)O)NC(=O)[C@H](CO)NC(=O)[C@@H](NC(=O)[C@H](Cc1ccccc1)NC(=O)[C@@H](NC(=O)CNC(=O)[C@H](Cc1c[nH]cn1)NC(=O)[C@H](CO)NC(=O)[C@@H](N)Cc1ccc(O)cc1)[C@@H](C)O)[C@@H](C)O)C(=O)N[C@@H](CC(=O)O)C(=O)N[C@@H](CCCCNC(=O)CC[C@H](NC(=O)CC[C@H](NC(=O)COCCOCCNC(=O)CCCCCCCCCCCCCCCCCCC(=O)O)C(=O)O)C(=O)O)C(=O)N[C@@H](CCCCN)C(=O)N[C@@H](Cc1ccc(O)cc1)C(=O)N[C@@H](C)C(=O)N[C@H]1CCC(=O)NCCCC[C@@H](C(=O)N[C@@H](Cc2c[nH]c3ccccc23)C(=O)N[C@@H](CC(C)C)C(=O)N[C@@H](CCC(=O)O)C(=O)N[C@@H](CC(N)=O)C(=O)N[C@@H](CCC(=O)O)C(=O)N2CCC[C@H]2C(=O)N[C@@H](CO)C(=O)N[C@@H](CO)C(=O)NCC(=O)N[C@@H](C)C(=O)N2CCC[C@H]2C(=O)N2CCC[C@H]2C(=O)N2CCC[C@H]2C(=O)N[C@@H](CO)C(=O)O)NC(=O)[C@H](C(C)C)NC(=O)[C@H](Cc2ccccc2)NC(=O)[C@H](CCCCN)NC1=O` [Compound A27] (H-YSHGTFTSDYSKYLDK([γGlu-γGlu-AEEA-C20 diacid])KYAEKFVKWLENEPSSGAPPPS-OH; lactam 20-24; N-terminus assumed), the results for the EC50 in test [1] and in test [2] were greater than 1000 pM and 1 pM, respectively.
